Results reported in patent publication US20220142897A1, “Formulation and Use Thereof in the Treatment of Keratosis Pilaris” (priority 2020, published 2022).

What was measured:
sebaceous glands [1] = test: Stimulation of sebaceous glands / sebum production by topical DHEA; assay type: in vivo, human
Excerpt: The main component of the current invention is DHEA, a steroid hormone. Without being bound by theory, it is hypothesized that DHEA in the current invention serves to simulate the production of sebaceous glands. […] In contrast, the upper limits of DHEA in the current invention can be as high as 100%.
Daily applications of DHEA can increase the output of sebaceous glands by up to 60% within 3 months. This makes DHEA a particularly viable and effective treatment for increasing sebum output in those with KP. Patients with KP typically have widespread sebaceous gland atrophy in the affected areas of the skin, causing downstream symptoms of skin dryness, inflammation, and could potentially be the root cause of the keratin papules that develop. DHEA also is suspected to help modulate and regulate keratinocyte proliferation. It is suspected that by regulating keratinocytes in the follicular channel, the rate at which keratin blockages forms is reduced.

sebaceous glands [2] = conditions: cited from earlier work

C[C@]12CC[C@H](O)CC1=CC[C@@H]1[C@@H]2CC[C@]2(C)C(=O)CC[C@@H]12 [DHEA, dehydroepiandrosterone]
sebum production as observed by softness and oiliness (sebaceous glands [1]; 2% DHEA): increase in sebum production | sebum production as observed by softness and oiliness (sebaceous glands [1]; DHEA reduced to approximately 0.1%): Such phenotypes are observed | stimulation of the sebaceous glands (sebaceous glands [1]; concentrations of DHEA at less than 0.1%, clinical studies): ineffective | increase of the output of sebaceous glands (sebaceous glands [2]; daily applications, within 3 months): up to 60% | safety of continuous topical application (sebaceous glands [2]; low concentrations to avoid systemic circulation): safe

C[C@]12CCC(=O)C[C@@H]1CC[C@@H]1[C@@H]2CC[C@]2(C)[C@@H](O)CC[C@@H]12 [DHT, dihydrotestosterone]
potency to stimulate sebaceous gland to produce sebocytes (sebaceous glands [2]; relative to DHEA): more potent than DHEA
